Assays:
Assay in all cases: Kinase panel profiling at 1 µmol/L (MSA or IMAP), percentage inhibition
Format in all cases: biochemical
[1] = target: panel of 255 wild-type kinases (Homo sapiens, UniProt P05771); settings: kinase PKCβ1; 1 µmol/L single concentration; read-out: %-inhibition at 1 µmol/L, PKCβ1
[2] = target: panel of 255 wild-type kinases (Homo sapiens, UniProt P19784); settings: kinase CK2α2/β; 1 µmol/L single concentration; read-out: %-inhibition at 1 µmol/L, CK2α2/β
[3] = target: panel of 255 wild-type kinases (Homo sapiens, UniProt P28482); settings: kinase Erk2; 1 µmol/L single concentration; read-out: %-inhibition at 1 µmol/L, Erk2
[4] = target: T1, panel of 255 wild-type kinases (Homo sapiens, UniProt P54762); settings: kinase EPHB1; 1 µmol/L single concentration; read-out: %-inhibition at 1 µmol/L, EPHB1
T1 sequence (P54762 18-984): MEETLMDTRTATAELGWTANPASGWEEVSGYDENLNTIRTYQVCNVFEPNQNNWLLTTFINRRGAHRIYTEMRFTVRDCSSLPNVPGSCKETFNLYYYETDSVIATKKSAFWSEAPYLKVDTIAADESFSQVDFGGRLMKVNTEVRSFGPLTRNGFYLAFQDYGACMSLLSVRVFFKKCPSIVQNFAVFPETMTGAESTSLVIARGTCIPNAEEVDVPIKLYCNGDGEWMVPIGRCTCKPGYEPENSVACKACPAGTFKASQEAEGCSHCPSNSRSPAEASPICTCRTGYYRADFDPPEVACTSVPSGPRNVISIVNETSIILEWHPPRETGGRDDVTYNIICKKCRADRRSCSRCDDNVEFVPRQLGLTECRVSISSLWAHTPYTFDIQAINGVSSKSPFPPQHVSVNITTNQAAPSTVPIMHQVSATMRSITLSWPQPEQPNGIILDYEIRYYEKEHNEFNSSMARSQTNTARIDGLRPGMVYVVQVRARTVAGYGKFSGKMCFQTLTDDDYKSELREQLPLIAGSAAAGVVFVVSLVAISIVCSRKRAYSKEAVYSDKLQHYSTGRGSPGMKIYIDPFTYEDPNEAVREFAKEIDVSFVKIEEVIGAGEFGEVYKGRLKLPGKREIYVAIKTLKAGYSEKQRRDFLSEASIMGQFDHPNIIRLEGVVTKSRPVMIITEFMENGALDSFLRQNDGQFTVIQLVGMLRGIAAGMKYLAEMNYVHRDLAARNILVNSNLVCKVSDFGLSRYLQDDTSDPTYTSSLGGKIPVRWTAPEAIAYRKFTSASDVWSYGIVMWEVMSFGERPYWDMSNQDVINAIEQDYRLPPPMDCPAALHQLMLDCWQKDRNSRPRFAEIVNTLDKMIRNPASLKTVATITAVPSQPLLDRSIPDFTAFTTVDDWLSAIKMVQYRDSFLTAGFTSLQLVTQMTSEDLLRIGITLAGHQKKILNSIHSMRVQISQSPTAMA

[5] = target: panel of 255 wild-type kinases (Homo sapiens, UniProt Q00535); settings: CDK5/p25 kinase assay; 1 µmol/L single concentration; read-out: %-inhibition CDK5/p25
[6] = target: panel of 255 wild-type kinases (Homo sapiens, UniProt Q15349); settings: kinase RSK3; 1 µmol/L single concentration; read-out: %-inhibition at 1 µmol/L, RSK3
[7] = target: panel of 255 wild-type kinases (Homo sapiens, UniProt Q16644); settings: MAPKAPK3; 1 µmol/L single concentration; read-out: %-inhibition, MAPKAPK3
[8] = target: panel of 255 wild-type kinases (Homo sapiens, UniProt Q7KZI7); settings: MARK2; 1 µmol/L single concentration; read-out: %-inhibition, MARK2
[9] = target: panel of 255 wild-type kinases (Homo sapiens, UniProt Q86V86); settings: kinase PIM3; 1 µmol/L single concentration; read-out: %-inhibition at 1 µmol/L, PIM3
[10] = target: T2, panel of 255 wild-type kinases (Homo sapiens, UniProt Q9BZL6); settings: kinase PKD2; 1 µmol/L single concentration; read-out: %-inhibition at 1 µmol/L, PKD2
T2 sequence (Q9BZL6 1-878): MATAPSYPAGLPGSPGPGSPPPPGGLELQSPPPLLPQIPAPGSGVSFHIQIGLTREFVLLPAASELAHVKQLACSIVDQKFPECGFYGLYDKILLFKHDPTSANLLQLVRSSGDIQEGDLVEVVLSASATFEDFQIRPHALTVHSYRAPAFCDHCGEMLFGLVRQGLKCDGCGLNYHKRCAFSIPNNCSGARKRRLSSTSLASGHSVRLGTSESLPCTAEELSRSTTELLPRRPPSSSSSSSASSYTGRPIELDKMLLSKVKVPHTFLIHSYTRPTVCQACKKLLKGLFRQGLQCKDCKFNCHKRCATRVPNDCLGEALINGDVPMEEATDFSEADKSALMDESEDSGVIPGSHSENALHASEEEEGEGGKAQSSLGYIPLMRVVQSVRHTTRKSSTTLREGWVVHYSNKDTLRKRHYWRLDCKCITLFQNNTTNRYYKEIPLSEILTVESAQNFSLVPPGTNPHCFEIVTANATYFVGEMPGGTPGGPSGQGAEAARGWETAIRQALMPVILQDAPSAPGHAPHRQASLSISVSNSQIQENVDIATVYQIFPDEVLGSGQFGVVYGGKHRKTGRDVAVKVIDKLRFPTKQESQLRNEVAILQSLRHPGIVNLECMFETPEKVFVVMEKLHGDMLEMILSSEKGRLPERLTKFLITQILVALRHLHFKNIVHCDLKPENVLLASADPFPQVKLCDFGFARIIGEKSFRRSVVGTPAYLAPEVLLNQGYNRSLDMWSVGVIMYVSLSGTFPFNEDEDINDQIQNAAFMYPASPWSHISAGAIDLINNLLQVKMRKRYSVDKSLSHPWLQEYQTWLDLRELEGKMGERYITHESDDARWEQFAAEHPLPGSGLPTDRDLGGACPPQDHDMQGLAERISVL

[11] = target: panel of 255 wild-type kinases (Homo sapiens, UniProt Q9H0K1); settings: kinase QIK; 1 µmol/L single concentration; read-out: %-inhibition at 1 µmol/L, QIK
[12] = target: panel of 255 wild-type kinases (Homo sapiens, UniProt Q9NQU5); settings: PAK6; 1 µmol/L single concentration; read-out: %-inhibition, PAK6

SMILES | inhibition at 1 µM [1] [%] | inhibition at 1 µM [2] [%] | inhibition at 1 µM [3] [%] | inhibition at 1 µM [4] [%] | inhibition at 1 µM [5] [%] | inhibition at 1 µM [6] [%] | inhibition at 1 µM [7] [%] | inhibition at 1 µM [8] [%] | inhibition at 1 µM [9] [%] | inhibition at 1 µM [10] [%] | inhibition at 1 µM [11] [%] | inhibition at 1 µM [12] [%]
C[C@H](Nc1ncnc2nc[nH]c12)c1cc2cccc(Cl)c2c(=O)n1-c1ccccc1 [duvelisib] | 5 | -1.47 | 0.0602 | 10 | -11 | -0.46 | -13 | -2.13 | -7 | -12 | 2.15 | 3.69
COC(=O)N[C@@H](C)CNc1nccc(-c2cn(C(C)C)nc2-c2cc(Cl)cc(NS(C)(=O)=O)c2F)n1 [encorafenib] | -1 | -3.75 | 2.55 | 3 | -17 | -3.36 | -15 | 5.68 | 10 | 2.49 | -0.749 | 13
CN1CCN(c2ccc(C(=O)Nc3n[nH]c4ccc(Cc5cc(F)cc(F)c5)cc34)c(NC3CCOCC3)c2)CC1 [entrectinib] | 12 | 2 | -0.572 | 62 | – | – | -10 | 9 | -10 | -24 | 6.5 | 15
CCc1nc(C(N)=O)c(Nc2ccc(N3CCC(N4CCN(C)CC4)CC3)c(OC)c2)nc1NC1CCOCC1 [gilteritinib] | 19 | 23 | -1.15 | 87 | 25 | 64 | -16 | 43 | 23 | 56 | 63 | 22
CCN1CCN(c2ccc(Nc3cc(N(C)C(=O)Nc4c(Cl)c(OC)cc(OC)c4Cl)ncn3)cc2)CC1 [infigratinib] | 5 | -2.17 | -4 | 2.8 | -17 | -0.616 | -17 | -9 | 0.254 | -4.21 | 26 | 10
O=C(Nc1cnn2ccc(N3CCC[C@@H]3c3cc(F)ccc3F)nc12)N1CC[C@H](O)C1 [larotrectinib] | -2.11 | -3 | -6 | -0.531 | -22 | -10 | -16 | -19 | -5.31 | -6 | -6.33 | 13

Source: PMC9516332 (Frontiers in Oncology, 2022)
